The values below come from publication PMC6337650 (Molecules, 2018).

One data set has as its system HCT-116 cells. Kind of data set: MTT antiproliferative assay, HCT-116. The class given is cell-based, human. The note with it: Homo sapiens, HCT-116, 48 h, MTT, mean ± SD, n=3; for inhibition at 100 µM: read-out: % Growth Inhibition at 100 μM HCT-116. As for the experimental part: (§1) The antiproliferative activity of the target compounds against a normal L02 cell line and the three different human cancer cell lines viz. colorectal (HCT-116), liver (BEL-7402) and liver (HepG2) were evaluated using a standard MTT-based colorimetric assay. All cell lines were obtained from the Key Laboratory of Natural Resources and Functional Molecules of the Changbai Mountain (Yanbian University, Jilin, China) and maintained in Dulbecco’s modified Eagle’s medium (DMEM) and RPMI Media 1640 (RPMI1640), supplemented with 10% fetal bovine serum (FBS) at 37 °C in a humidified atmosphere containing 5% CO2.
(§2) Cells were plated in 96-well plates at appropriate densities to ensure exponential growth throughout the experimental period (9 × 10^3 cells per well) and then allowed to adhere for 24 h. Cells were then treated for 48 h with four serial concentrations (1, 10, 50 and 100 µM) of each compound. 5-fluorouracil (5-FU) was used as a positive control. After 48 h of incubation, 10 µL of MTT solution was added to each well to a final concentration of 2 mg/mL. Plates were then incubated for a further 4 h. After incubation, the MTT solution was removed and 150 µL of DMSO was added to each well for coloration. The plates were shaken vigorously for 10 min at room temperature to ensure complete solubilization. The optical density (OD) was read on a microplate reader (ELx800, BioTek, Highland Park, Winooski, VT, USA) at a wavelength of 492 nm and the data were subsequently analyzed. The percentage of cell growth inhibition was calculated from the following equation: Inhibitory rate (%) = [(1 − (ODtreated-ODblank)/(ODcontrol-ODblank)] × 100.(1)

In the next data set the test system is BEL-7402 cells. Kind of data set: MTT antiproliferative assay, BEL-7402. It counts as cell-based, human. The note with it: Homo sapiens, Bel-7402, 48 h, MTT, mean ± SD, n=3; for inhibition at 100 µM: read-out: % Growth Inhibition at 100 μM BEL-7402. As for the experimental part:
as §1, §2

The test system of another data set is HepG2 cells. Put plainly: MTT antiproliferative assay, HepG2. It counts as cell-based, human. The settings on record: Homo sapiens, HepG2, 48 h, MTT, mean ± SD, n=3; for inhibition at 100 µM: read-out: % Growth Inhibition at 100 μM HepG2. As for the experimental part:
as §1, §2

The next data set deals with L02 cells. Put plainly: MTT assay on normal liver cells L02. The class given is cell-based. The note with it: Homo sapiens, normal liver cells, 48 h, MTT, Table 2, read-out: IC50 Values (μM) L02. As to the method: as §1
as §2, with “5-fluorouracil (5-FU) was used as a positive control.” left out

`CN(C)CCNC(=O)[C@]1(C)CCC[C@@]2(C)[C@@H]3CC[C@@]4(C)C[C@]3(CC[C@@H]21)CC4=O` [Compound 1b, (4R,4aS,6aR,9S,11aR,11bS)-N-(2-(dimethylamino)ethyl)-4,9,11b-trimethyl-8-oxotetradecahydro-6a,9-methanocyclohepta[a]naphthalene-4-carboxamide] had a melting point of 102 to 103 °C. Besides, in the data set with HCT-116 cells, the inhibition at 100 µM is 76.6 ± 1.78% and inhibition was half-maximal at 24 ± 1.2 µM (IC50). Moreover, in the data set on BEL-7402 cells, the inhibition at 100 µM was found to be 88.5 ± 2.02% and the IC50 is > 100 µM. Also, in the data set with HepG2 cells, the inhibition at 100 µM was 57 ± 2.35% and the IC50 was > 100 µM. In addition, the IC50 in the data set on L02 cells is > 100 µM.
`CCN1CCN(C(=O)COC(=O)[C@]2(C)CCC[C@@]3(C)[C@@H]4CC[C@@]5(C)C[C@]4(CC[C@@H]32)CC5=O)CC1` [Compound 2b, 2-(4-ethylpiperazin-1-yl)-2-oxoethyl(4R,4aS,6aR,9S,11aR,11bS)-4,9,11b-trimethyl-8-oxotetradecahydro-6a,9-methanocyclohepta[a]naphthalene-4-carboxylate] showed a melting point of 115 to 117 °C. Moreover, in the data set on HCT-116 cells, the inhibition at 100 µM stood at 60.4 ± 1.69% and 30.7 ± 1.98 µM corresponded to half-maximal inhibition (IC50). For the same compound, in the data set on BEL-7402 cells, the inhibition at 100 µM was 64.4 ± 1.66% and the IC50 is > 100 µM. In the data set on HepG2 cells, the inhibition at 100 µM was < 10% and the IC50 was > 100 µM. In addition, the IC50 in the data set with L02 cells is > 100 µM.
Regarding `C[C@@]12CC[C@@H]3[C@@](CC[C@H]4[C@@]3(C)CCC[C@@]4(C)C(=O)OCC(=O)N3CCN(Cc4ccccc4)CC3)(CC1=O)C2` [Compound 2d, 2-(4-benzylpiperazin-1-yl)-2-oxoethyl(4R,4aS,6aR,9S,11aR,11bS)-4,9,11b-trimethyl-8-oxotetradecahydro-6a,9-methanocyclohepta[a]naphthalene-4-carboxylate], the melting point fell in the range of 149 to 150 °C. In addition, in the data set on HCT-116 cells, the inhibition at 100 µM is 75.4 ± 1.06% and the IC50 was 18.2 ± 1.26 µM. In addition, in the data set on BEL-7402 cells, the inhibition at 100 µM came out at 70.9 ± 1.05% and half-maximal inhibition (IC50) was put at 53 ± 1.97 µM. In addition, in the data set with HepG2 cells, the inhibition at 100 µM is 70.6 ± 0.89% and inhibition was half-maximal at 11.1 ± 0.55 µM (IC50). Besides, the IC50 with L02 cells is > 100 µM.
The compound `C[C@@]12CC[C@@H]3[C@@](CC[C@H]4[C@@]3(C)CCC[C@@]4(C)C(=O)OCC(=O)N3CCCCCC3)(CC1=O)C2` [Compound 2e, 2-(azepan-1-yl)-2-oxoethyl(4R,4aS,6aR,9S,11aR,11bS)-4,9,11b-trimethyl-8-oxotetradecahydro-6a,9-methanocyclohepta[a]naphthalene-4-carboxylate] registered a melting point of 110 to 112 °C. Moreover, in the data set on HCT-116 cells, the inhibition at 100 µM turned out to be 85.6 ± 0.96% and the IC50 is > 100 µM. Moreover, in the data set on BEL-7402 cells, the inhibition at 100 µM was found to be 64.9 ± 1.01% and the IC50 was determined as 13.2 ± 0.32 µM. Also, in the data set on HepG2 cells, the inhibition at 100 µM came to 50.4 ± 0.57% and the IC50 was 20.5 ± 0.46 µM. In addition, in the data set with L02 cells, the IC50 was > 100 µM.
For `COC(=O)[C@@H](NC(=O)[C@]1(C)CCC[C@@]2(C)[C@@H]3CC[C@@]4(C)C[C@]3(CC[C@@H]21)CC4=O)c1ccccc1` [Compound 3a, Methyl(S)-2-phenyl-2-((4R,4aS,6aR,9S,11aR,11bS)-4,9,11b-trimethyl-8-oxotetradecahydro-6a,9-methanocyclohepta[a]naphthalene-4-carboxamido)acetate], the melting point was 143 to 145 °C. In the data set on HCT-116 cells, the inhibition at 100 µM amounted to 86.26 ± 0.59% and the IC50 stood at 40.4 ± 0.97 µM. Also, in the data set on BEL-7402 cells, the inhibition at 100 µM was determined as 80 ± 0.95% and the IC50 was > 100 µM. Further, in the data set on HepG2 cells, the inhibition at 100 µM is 75.25 ± 0.56% and the IC50 was > 100 µM. For the same compound, in the data set on L02 cells, the IC50 was > 100 µM.
Consider `COC(=O)C(Cc1ccccc1)NC(=O)C1(C)CCCC2(C)C3CCC4(C)CC3(CCC12)CC4=O` [Compound 3b, Methyl((4R,4aS,6aR,9S,11aR,11bS)-4,9,11b-trimethyl-8-oxotetradecahydro-6a,9-methanocyclohepta[a]naphthalene-4-carbonyl)-D-phenylalaninate], for which the melting point was 147 to 148 °C. Further, in the data set on HCT-116 cells, the inhibition at 100 µM is 70.8 ± 0.98% and the IC50 worked out at 22.8 ± 0.81 µM. In the data set with BEL-7402 cells, the inhibition at 100 µM worked out at 61.8 ± 0.96% and the IC50 is 36.5 ± 0.67 µM. For the same compound, in the data set with HepG2 cells, the inhibition at 100 µM was 81.2 ± 2.66% and the IC50 came out at 24.4 ± 1.75 µM. Further, in the data set on L02 cells, the IC50 was > 100 µM.
The compound `C[C@@]12CC[C@@H]3[C@@](CC[C@H]4[C@@]3(C)CCC[C@@]4(C)C(=O)OCC(=O)Nc3ccccc3)(CC1=O)C2` [Compound 4a, 2-oxo-2-(phenylamino)ethyl(4R,4aS,6aR,9S,11aR,11bS)-4,9,11b-trimethyl-8-oxotetradecahydro-6a,9-methanocyclohepta[a]naphthalene-4-carboxylate] displayed a melting point of 154 to 156 °C. Further, in the data set with HCT-116 cells, the inhibition at 100 µM worked out at 60.4 ± 3.11% and the IC50 came to 56.6 ± 1.56 µM. Besides, in the data set on BEL-7402 cells, the inhibition at 100 µM stood at 50.8 ± 2.31% and the IC50 was > 100 µM. Besides, in the data set with HepG2 cells, the inhibition at 100 µM was 31.2 ± 1.19% and the IC50 was > 100 µM. Further, the IC50 with L02 cells was > 100 µM.
Regarding `C[C@@]12CC[C@@H]3[C@@](CC[C@H]4[C@@]3(C)CCC[C@@]4(C)C(=O)OCC(=O)Nc3cccc(F)c3)(CC1=O)C2` [Compound 4f, 2-((3-fluorophenyl)amino)-2-oxoethyl(4R,4aS,6aR,9S,11aR,11bS)-4,9,11b-trimethyl-8-oxotetradecahydro-6a,9-methanocyclohepta[a]naphthalene-4-carboxylate], the melting point lay within 144 to 145 °C. For the same compound, in the data set with HCT-116 cells, the inhibition at 100 µM is 68.7 ± 2.67% and the IC50 was 17.2 ± 0.43 µM. Further, in the data set on BEL-7402 cells, the inhibition at 100 µM was found to be 54.6 ± 3.11% and the IC50 is > 100 µM. In the data set on HepG2 cells, the inhibition at 100 µM is 49.12 ± 0.44% and the IC50 was > 100 µM. Further, in the data set on L02 cells, the IC50 was > 100 µM.
Compound `C[C@@]12CC[C@@H]3[C@@](CC[C@H]4[C@@]3(C)CCC[C@@]4(C)C(=O)OCC(=O)Nc3ccc([N+](=O)[O-])cc3)(CC1=O)C2` [Compound 4h, 2-((4-nitrophenyl)amino)-2-oxoethyl(4R,4aS,6aR,9S,11aR,11bS)-4,9,11b-trimethyl-8-oxotetradecahydro-6a,9-methanocyclohepta[a]naphthalene-4-carboxylate] showed a melting point of 189 to 190 °C. Moreover, in the data set on HCT-116 cells, the inhibition at 100 µM was 55.4 ± 2.55% and the IC50 is > 100 µM. Moreover, in the data set with BEL-7402 cells, the inhibition at 100 µM is 71.4 ± 2.36% and the IC50 worked out at 12.14 ± 0.12 µM. Further, in the data set with HepG2 cells, the inhibition at 100 µM worked out at 76.5 ± 1% and the IC50 amounted to 14.1 ± 0.27 µM. In addition, the IC50 in the data set with L02 cells is > 100 µM.
For the compound `CCOP(=O)(OCC)C(NC(=O)COC(=O)[C@]1(C)CCC[C@@]2(C)[C@@H]3CC[C@@]4(C)C[C@]3(CC[C@@H]21)CC4=O)c1ccc(Cl)c(Cl)c1` (stereo partly drawn) [Compound 6e, 2-(((3,4-dichlorophenyl)(diethoxyphosphoryl)methyl)amino)-2-oxoethyl(4R,4aS,6aR,9S,11aR,11bS)-4,9,11b-trimethyl-8-oxotetradecahydro-6a,9-methanocyclohepta[a]naphthalene-4-carboxylate], the melting point lay in the range of 168 to 169 °C. The inhibition at 100 µM in the data set on HCT-116 cells turned out to be 43.5 ± 0.56%. For the same compound, the inhibition at 100 µM in the data set on BEL-7402 cells is 49.9 ± 1.26%. The inhibition at 100 µM in the data set with HepG2 cells was 39.5 ± 1.37%.
For the compound `C[C@@]12CC[C@@H]3[C@@](CC[C@H]4[C@@]3(C)CCC[C@@]4(C)C(=O)O)(CC1=O)C2` [Isosteviol, isosteviol, reference compound], the inhibition at 100 µM was found to be 34.1 ± 1.89% in the data set with HCT-116 cells, 28 ± 1.79% with BEL-7402 cells and 11.8 ± 0.88% with HepG2 cells. Further, the IC50 with HCT-116 cells, in the data set on BEL-7402 cells, in the data set on HepG2 cells and with L02 cells was > 100 µM throughout.
